Measured values taken from patent US9587225B2, “Low-molecular-compound for improving production, maintenance and proliferation of pluripotent stem cells, composition comprising the same, and culture method” (KOREA RESEARCH INSTITUTE OF BIOSCIENCE AND BIOTECHNOLOGY, priority 2012, dated 2017).

Key:
[1] = tested on: human skin fibroblasts (hFFs); experiment: Reprogramming of human skin fibroblasts, AP-positive colony count; assay type: cell-based
Method: In order to screen low-molecular-weight compounds that promote the production of reprogrammed stem cells, human fibroblasts were transduced with reprogramming viruses (Oct4, Sox2, Klf4, and c-Myc). After 5 days, the cells were seeded on Matrigel-coated plates, and then cultured in MEF-conditioned medium (CM) containing each of low-molecular-weight compounds until colonies having a morphology similar to that of human embryonic stem cells were formed. After 15 days, alkaline phosphatase (AP) activity was measured, and compounds that increased the efficiency of reprogramming compared to that of a control group were selected. […] The values shown on the graph are mean values. The data are expressed as mean±SD (n=3).
For production of iPSC, human skin fibroblasts (hFFs) and mouse embryonic fibroblasts (MEFs) were seeded on gelatin-coated 6-well plates at a concentration of 1×10^5 cells per well at one day before transfection and were transfected with virus in the presence of polybrene (8 μg/ml). At 5 days after the transfection, hFFs or MEFs were collected by trypsin treatment and seeded again on Matrigel-coated 6-well plates at a concentration of 5 to 6×10^4 cells per well in order to perform experiments in feeder-free conditions. The medium was replaced with MEF-CM medium containing 10 ng/ml of bFGF. MEF-CM was prepared as γ-irradiated MEF according to a known method (Xu C. Nat Biotechnol 19, 971-974), and […] bFGF was added to MEF-CM. The medium was replaced at 2-day intervals. At 20 days after the transfection, hESC-like colonies were collected and transferred to 12-well plates having MEFs as feeder cells, and then continuously cultured using the hESC culture method described in Example 2.
The OSKM reprogramming factor virus was produced according to the method of Example 3. In order to screen low-molecular-weight compounds that increase the efficiency of reprogramming, hFFs and mouse embryonic fibroblasts (OG2-MEF; hemizygous for the Oct4-GFP transgene) were seeded on gelatin-coated 6-well plates at a concentration of 1×10^5 cells at one day before transfection, and then transfected with virus in the presence of polybrene (8 μg/ml). At 5 days after the transfection, hFFs or MEFs were collected by trypsin treatment and seeded again on Matrigel- or gelatin-coated 12-well plates at a concentration of 3.5×10^4 cells per well in order to perform experiments under feeder-free conditions. The medium was replaced with 10 ng/ml bFGF-containing MEF-CM or mouse embryonic stem cell culture medium, and then the prepared low-molecular-weight compounds that are trans-3-indoleacrylic based compounds were added at various concentrations. The culture medium containing each of the low-molecular-weight compounds was replaced at 2-day intervals. At 15 days after the transfection, the number of either colonies showing AP activity or colonies expressing endogenous Oct4 GFP fluorescence was measured to determine the efficiency of reprogramming.
ALP staining was performed using a commercial ALP kit (Sigma) according to the manufacturer's instruction. Images of ALP-positive cells were recorded using HP Scanjet G4010. In addition, bight field images were obtained using an Olympus microscope (IX51, Olympus, Japan).
To discover low-molecular-weight compounds that involved in the reprogramming of human somatic cells, reprogramming regulators of human skin fibroblasts were investigated by analog library screening of thirty selected novel trans-3-indoleacrylic acid-based compounds. Human skin fibroblasts were transfected with OSKM reprogramming virus, and after 5 days, the cells were seeded on Matrigel-coated 12-well plates and incubated in MEF-conditioned medium (CM) containing each of the low-molecular-weight compounds until colonies having a morphology similar to that of human embryonic stem cells were formed.

[2] = tested on: Nanog, Oct4, Rex1, p53, p21 and p16; experiment: Expression of pluripotency markers and p53, p21, p16 during reprogramming (real-time RT-PCR, immunostaining); assay type: cell-based, human
Method: In still another example of the present invention, in order to examine whether the novel compound RSC-133 can promote kinetics in a culture process for reprogramming to shorten the time required for the induction of reprogramming, the expression patterns of pluripotency-specific markers were analyzed at various time points.
Total RNA was isolated from the produced cells using RNeasy Mini kit (Qiagen, Valencia, Calif.), and then reverse-transcribed using SuperScript First-strand synthesis system kit (Invitrogen) according to the manufacturer's instruction. […]
In order to examine whether RSC-133 can increase the rate of reprogramming, the relative levels of mRNA expressed during the reprogramming process were measured. […] Thus, it can be seen that RSC-133 can increase the efficiency of reprogramming and also can be involved in the reprogramming process to stimulate kinetics.

human skin fibroblasts = experiment: BrdU immunocytochemical analysis of proliferating cell population; assay type: cell-based
Method: Immunocytochemical analysis was performed using monoclonal antibody for bromodeoxyuridine (BrdU), and then percent BrdU positive cells are graphically shown. The values shown on the graph are mean values. The data are expressed as ±SD (n=3) (*P<0.05, by t-test).
The left panel is a set of graphs showing the results of immunocytochemical analysis performed using monoclonal antibody for BrdU, and the right panel is a graph showing the results of measurement of percent BrdU positive cells. The values shown on the graph are mean values. The data are expressed as mean±SD (n=3).
For immunostaining, cells were seeded on Matrigel-coated 4-well Lab-Tek chamber slides (Nunc, Naperville, Ill.) and cultured for 5 days under the indicated conditions. The cells were fixed in 4% paraformaldehyde at room temperature for 15 minutes, and then washed with PBS/0.2% BSA. Next, the cells were passed through PBS/0.2% BSA/0.1% Triton X-100 for 15 minutes, and then incubated with 4% normal donkey serum (Molecular Probes, Eugene, Oreg., USA) in PBS/0.2% BSA at room temperature for 1 hour. The cells were diluted with PBS/0.2% BSA, and then reacted with primary antibody at 4° C. for 2 hours. After washing, the cells were reacted with FITC- or Alexa594-conjugated secondary antibody (Invitrogen) in PBS/0.2% BSA at room temperature for 1 hour. The cells were counter-stained with 10 μg/ml DAPI. […]

Q: Which results are given for `NC(=O)c1cccc(NC(=O)/C=C/c2c[nH]c3ccccc23)c1` [RSC-133, 3-[3-(1H-indol-3-yl)-acrylamido]-benzamide]?
A: concentration that increases the efficiency of reprogramming to the highest level ([1]; 0, 0.1, 1, 5, 10 and 20 μM tested): 10 µM; efficiency of reprogramming at 20 μM versus 10 μM ([1]; 20 μM (FIG. 8)): did not increase; efficiency of reprogramming, hypoxic conditions ([1]; 5% O2, compared to control group (FIG. 4)): showed the effect of increasing the efficiency of reprogramming of human skin fibroblasts; efficiency of reprogramming, normal conditions ([1]; 21% O2, compared to control group (FIG. 4)): showed the effect of increasing the efficiency of reprogramming of human skin fibroblasts; efficiency of reprogramming (alkaline phosphatase activity) ([1]; OSKM, MEF-CM, after 15 days, compared to control group (FIG. 3)): increased the efficiency of reprogramming of human skin fibroblasts; effect on the promotion of reprogramming of human cells relative to AZA, VPA, TSA and SB431542 ([1]; RSC 133 10 μM, AP-positive colonies, OSKM (FIG. 2b)): 1.5-3.3 times; concentration dependence of the increase in efficiency of reprogramming ([1]; treatment concentration of up to 10 μM, AP-positive colonies (FIG. 8)): concentration-dependent manner; efficiency of reprogramming, continuous treatment ([1]; treatment throughout the reprogramming process (condition 1 in FIG. 10)): increased to the highest level; time of appearance of pluripotency-specific markers (Nanog, Tra1-81, Oct4, Rex1) ([2]; immunostaining and real-time PCR at various time points (FIGS. 15, 16)): appeared early than that in an untreated control group; expression levels of undifferentiation markers Nanog, Oct4 and Rex1 ([2]; real-time RT-PCR, cells harvested at 5-day intervals, presence vs absence of RSC-133 (FIG. 16)): relatively increased; expression levels of p53, p21 and p16 ([2]; real-time RT-PCR, presence vs absence of RSC-133 (FIG. 16 lower panel)): relatively inhibited; BrdU-positive cell population, reprogramming not induced (human skin fibroblasts; OSKM-transfected human skin fibroblasts, reprogramming not induced (FIG. 14)): increased BrdU-positive cell population; BrdU-positive cell population during the reprogramming process (human skin fibroblasts; during reprogramming (FIG. 13)): increased BrdU-positive cell population
